# Measured values as given in publication PMC7248907, “Naphthoquinones as Covalent Reversible Inhibitors of Cysteine Proteases—Studies on Inhibition Mechanism and Kinetics” (Molecules, 2020).
# “And” between values parts separate entries of the source, which are not always exact repeats. Equal values may be shown once. “Also recorded” adds a separate entry of the source. Read-outs that look alike come from different tables or passages of the source.
# What was measured:
# [1] = biological target: T1, rhodesain (Trypanosoma brucei rhodesiense, UniProt Q95PM0); assay: biochemical; format: biochemical; conditions: for fold improvement of rhodesain inhibition, acid compared to benzyl ester: 3 compared to 1, 4 compared to 2; for Rhod. t1/2: half-life of final complex, 0.693/k4; for Rhod. ΔEreac: reaction energy of second inhibition step from k3/k4; for Rhod. k3 / Rhod. k4: second inhibition step; for Rhod. k3: forward rate; for Rhod. k4: off-rate; for inhibition at 20 µM: at 20 µM inhibitor, read-out: Rhod. % inh.
# T1 construct: made in house; host or cells: Pichia pastoris
# [2] = biological target: T1, rhodesain; assay: Dilution assay (reversibility), rhodesain; format: biochemical; conditions: 5×IC50, 50-fold dilution; data not shown
# [3] = biological target: T1, rhodesain; assay: Hydrolysis assay LC/MS (ester hydrolysis by rhodesain); format: biochemical; conditions: 24 h incubation with rhodesain, 25 °C
# Method: As reported previously for benzyl esters of the tested dipeptide sequence, we raised the hypothesis also in the current case, that the observed ester cleavage of the rhodesain–inhibitor adduct (Figure 5) might occur by rhodesain-catalyzed enzymatic hydrolysis. To verify this hypothesis, we incubated compounds 1, 2 (benzyl esters), compound 6 (methyl ester) and compound 8 (tert-butyl ester) for 24 h with rhodesain. The reaction mixtures were subsequently analyzed by LC–MS.
# In fact, we found ester hydrolysis for the benzyl and methyl esters, but not for the tert-butyl ester. […] The unconverted ester 1 was eluted at tR = 3.19 min. Upon incubation with rhodesain, a peak at tR = 1.03 min was observed matching the retention time of the reference acid 3. […]
# triplicates at different time points (0, 30, 60, 120 min) and reactions were initiated by the addition of […]
# Hydrolysis assay – LC/MS:
# Hydrolysis assays were performed as described previously.[12] To a solution of rhodesain […]
# 2 mM DTT) 1 μL of either cpd. 1, 2, 6 or 8 in DMSO (20 mM) was added and the mixtures was incubated for 24 h at 25 °C. As negative reaction control, 99 μL assay buffer was treated with pure cpd. 1, 2, 6 or 8 in DMSO (20 mM) without rhodesain. […]
# (§1) (20 mM) was added and the absorbance was monitored for 2 h at 25 °C with a Tecan Spark 10M (λabs: […]
# [4] = biological target: T2, NS3/NS2B protease of the Dengue virus (DENV PR) (Dengue virus type 2, UniProt P29990); assay: Fluorometric DENV NS2B/NS3 protease assay (Boc-Gly-Arg-Arg-AMC); format: biochemical; conditions: for inhibition at 20 µM: at 20 µM inhibitor, read-out: DENV PR % inh.
# T2 construct: the NS3/NS2B protease of the Dengue virus (DENV PR)
# [5] = biological target: T3, cathepsin L (Homo sapiens, UniProt P07711); assay: Fluorometric cathepsin L inhibition assay (Cbz-Phe-Arg-AMC); format: biochemical; parameters: purchased Calbiochem, Merck Millipore; conditions: for Cath. L k3 / Cath. L k4: second inhibition step; for Cath. L k3: forward rate; for Cath. L k4: off-rate; for Cath. L t1/2: half-life of final complex, 0.693/k4; for Cath. L ΔEreac: reaction energy of second inhibition step from k3/k4; for inhibition at 20 µM: at 20 µM inhibitor, read-out: Cath. L % inh.
# [6] = biological target: T4, cathepsin B (Homo sapiens, UniProt P07858); assay: Fluorometric cathepsin B inhibition assay (Cbz-Phe-Arg-AMC); format: biochemical; conditions: for inhibition at 20 µM: at 20 µM inhibitor, read-out: Cath. B % inh.
# T4 construct: purchased Calbiochem, Merck Millipore
# [7] = biological target: T3, cathepsin L; assay: Dilution assay (reversibility), cathepsin L; conditions: 5×IC50, 15 min incubation, 50-fold dilution
# Method: Then, the mixture was diluted by 50-fold to yield a final inhibitor concentration of 10% of the IC50 concentration.
# Fluorometric assays for cathepsin B and cathepsin L (Calbiochem, Merck
# Millipore) were performed as described previously.[7,8] Cbz-Phe-Arg-AMC was used as substrate
# (final conc.: 100 μM for cathepsin B, 6.5 μM for cathepsin L) in assay buffer (50 mM Tris, pH 6.5,
# Recombinantly expressed rhodesain (0.9 mg/mL) or cathepsin L (Calbiochem, Merck Millipore) were
# diluted 1:100 in enzyme buffer (rhodesain: 50 mM sodium acetate, pH 5.5, 5 mM EDTA, 200 mM
# NaCl and 2 mM DTT; cathepsin L: 50 mM Tris, pH 6.5, 5 mM EDTA, 200 mM NaCl and 2 mM DTT)
# and preincubated for 1 h at room temperature. 54 μL of the respective enzyme solution was treated
# enzyme-inhibitor reactions were incubated for 15 min at room temperature to ensure complete
# inhibition. 1.2 μL of each reaction mixture was diluted with 57.3 μL of the respective assay buffer
# (rhodesain: 50 mM sodium acetate, pH 5.5, 5 mM EDTA, 200 mM NaCl, 0.005% Brij; cathepsin L:
# Phe-Arg-AMC in DMSO (final conc.: 10 μM for rhodesain, 6.5 μM for cathepsin L) and monitored
# with a Tecan Infinite M200 Pro plate reader (λ ex: 380 nm/λ em: 460 nm).
# [8] = biological target: T1, rhodesain; assay: Hydrolysis assay UV-Vis (ester hydrolysis by rhodesain); format: biochemical; conditions: for half-life at 250 µM: Trypanosoma brucei rhodesiense, rhodesain enzyme solution, pH 5.5, absorbance at 400 nm vs time, read-out: t1/2 of ester hydrolysis by rhodesain; for turnover curve of absorbance at 400 nm vs. time with rhodesain: monitored for 2 h at 25 °C
# Method: Since the esters and the free carboxylic acid have different UV-Vis characteristics, we recorded time-dependent absorbance spectra at 400 nm (Figure 9).
# Figure 9 Kinetic analysis of the ester hydrolysis by rhodesain. […]
# Hydrolysis assay – UV-Vis:
# To a solution of rhodesain (10 μg/mL) in 197.5 μL reaction buffer (50 mM sodium acetate, pH 5.5,
# as §1
# [9] = test system: T. b. brucei 449 cell line; assay: T. b. brucei cell survival assay (ATPlite); format: cell-based; conditions: Trypanosoma brucei, 48 h; read-out: EC50 antitrypanosomal activity
# Method: Benzyl ester 2 was tested for its antitrypanosomal activity as described previously.
# 5. T. b. brucei cell survival assay
# Toxicity of 2 against trypanosomes ( T. b. brucei 449 cell line) were determined via an ATPlite assay as described previously[13–15] using the cellular ATP levels as a proxy for cell viability. 2 (5 mM stock solution in DMSO) was first diluted 1:3 in medium, followed by a 1:10 dilution step in a microplate and ten subsequent 1:2 dilution steps. 90 μL HMI-9 medium containing 2500 cells/mL were distributed in 96-well microplates (PerkinElmer). 10 μL of the 1:2 dilution step preparations of the tested compounds were added to the 90 μL cell suspension leading to final concentrations from 16.67 μM to 32.55 nM in the microplates. As a negative control, addition of 0.3% of DMSO corresponding to the highest DMSO concentration added by compound application was used. 10% DMSO was used as a positive control, since at this DMSO concentration, all cells die. […] 50 μL of ATPlite 1 step solution (PerkinElmer) was added to each well of the microplate and luminescence measured at room temperature with an Infinite® M200 PRO plate reader (Tecan Trading AG). The measured values were plotted against the compound concentrations top yield the dose-response curve. The EC 50 values were calculated using GraFit version 5.013 (Erithacus Software Ltd.).
# [10] = biological target: T1, rhodesain; assay: Dialysis assay (reversibility), rhodesain; format: biochemical; conditions: 20×IC50, 30 min preincubation, dialysis up to 120 min
# [11] = final complex, Dixon fit of vS vs [I], read-out: Cath. L Ki^* Method 2
# [12] = final high-affinity complex, Ki/(1+k3/k4), read-out: Cath. L Ki^* Method 1
# [13] = initial complex, Dixon fit of vi vs [I], read-out: Cath. L Ki Method 2
# [14] = initial non-covalent complex, from kobs vs [I], read-out: Cath. L Ki Method 1
# [15] = reversible, time-dependent inhibition, final high-affinity complex, mean of method 1 and method 2, read-out: Cath. L Ki^*
# [16] = approximate value, read-out: Ki of initial non-covalent complex, Rhod
# [17] = final complex, Dixon fit of vS vs [I], read-out: Rhod. Ki^* Method 2
# [18] = final high-affinity complex, Ki/(1+k3/k4), read-out: Rhod. Ki^* Method 1
# [19] = initial complex, Dixon fit of vi vs [I], read-out: Rhod. Ki Method 2
# [20] = initial non-covalent complex, from kobs vs [I], read-out: Rhod. Ki Method 1
# [21] = reversible, time-dependent inhibition, final high-affinity complex, mean of method 1 and method 2, read-out: Rhod. Ki^*
# [22] = approximate value, read-out: Ki of initial non-covalent complex, CathL
# T1 sequence (Q95PM0 entry or part of it): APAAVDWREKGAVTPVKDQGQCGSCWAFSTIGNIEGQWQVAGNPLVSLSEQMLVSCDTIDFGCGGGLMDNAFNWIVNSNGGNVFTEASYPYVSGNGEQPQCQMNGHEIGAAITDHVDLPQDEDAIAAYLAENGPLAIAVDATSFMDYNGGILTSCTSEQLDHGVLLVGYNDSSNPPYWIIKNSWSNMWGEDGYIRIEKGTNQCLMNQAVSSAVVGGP
# T2 sequence (P29990 1346-1475): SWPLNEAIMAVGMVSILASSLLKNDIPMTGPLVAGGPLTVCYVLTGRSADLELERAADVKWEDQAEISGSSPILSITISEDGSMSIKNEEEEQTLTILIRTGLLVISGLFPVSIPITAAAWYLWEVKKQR
# T2 sequence (P29990 1476-1653): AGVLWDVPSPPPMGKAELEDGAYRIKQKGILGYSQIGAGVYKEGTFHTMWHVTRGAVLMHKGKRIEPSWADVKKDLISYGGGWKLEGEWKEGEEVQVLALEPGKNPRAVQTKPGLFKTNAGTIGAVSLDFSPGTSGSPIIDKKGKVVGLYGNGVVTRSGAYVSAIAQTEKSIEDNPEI
# T3 sequence (P07711 114-333): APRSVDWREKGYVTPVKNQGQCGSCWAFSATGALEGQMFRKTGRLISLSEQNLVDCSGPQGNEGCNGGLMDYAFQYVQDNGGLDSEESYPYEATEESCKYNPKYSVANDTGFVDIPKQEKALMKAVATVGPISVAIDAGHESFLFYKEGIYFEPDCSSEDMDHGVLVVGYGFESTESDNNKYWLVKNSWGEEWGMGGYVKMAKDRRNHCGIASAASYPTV
SMILES,Ki ([1]; read-out: Rhod. Ki) [nM],"reactivation of enzyme activity after dilution, rhodesain [2]",inhibition at 20 µM [4] [%],inhibition at 20 µM [6] [%],"reactivation of enzyme activity after dilution, cathepsin L [7]","Ki [5, 11] [nM]","Ki [5, 12] [nM]","Ki [5, 13] [nM]","Ki [5, 14] [nM]","Ki [5, 15] [nM]",Cath. L k3 [5] [s⁻¹],Cath. L k4 [5] [s⁻¹],recovery of rhodesain activity by dialysis [10],inhibition at 20 µM [1] [%],inhibition at 20 µM [5] [%],also measured
"CC(C)CC(NC(=O)C(Cc1ccccc1)NC1=C(Cl)C(=O)c2ccccc2C1=O)C(=O)OCc1ccccc1 [Compound 1, Benzyl-N-(3-chloro-1,4-dioxo-1,4-dihydronaphthalen-2-yl)-L-phenylalanyl-L-leucinate]",2900,40–50%,41,53,full reactivation; also recorded: nearly fully recovered,,,,,,,,,,,"ester hydrolysis by rhodesain (LC–MS) [3]: rhodesain-catalyzed ester hydrolysis; Ki ([5]; from plots of IC50 vs substrate concentration (Cheng–Prusoff), read-out: Cath. L Ki): 1140 nM"
CC(C)C[C@H](NC(=O)[C@H](Cc1ccccc1)NC1=C(C#N)C(=O)c2ccccc2C1=O)C(=O)OCc1ccccc1 [Compound 2],180,,,,full reactivation; also recorded: nearly fully recovered,54,12,300,160,33,0.0148,0.0012,,,,"half-life at 250 µM [8]: 3.41 min; turnover curve of absorbance at 400 nm vs. time with rhodesain [8]: hyperbolic turnover curves; EC50 [9]: 120 nM; IC50 ([4]; [S] = 100 µM (Boc-Gly-Arg-Arg-AMC)): 41000 nM; k3, cathepsin L ([5]; Method 1): 0.0148 s⁻¹; k4, cathepsin L ([5]; Method 1): 0.0012 s⁻¹; half-life t1/2 of final complex, cathepsin L ([5]; calculated by 0.693/k4): around 10 min; Ki ([6]; read-out: Cath. B Ki): 1900 nM"
CC(C)C[C@H](NC(=O)[C@H](Cc1ccccc1)NC1=C(Cl)C(=O)c2ccccc2C1=O)C(=O)O [Compound 3],,full reactivation,43,25,full reactivation,61,53,345,443,57,0.0052,0.0007,the enzymatic activity was restored,,,"fold improvement of rhodesain inhibition, acid compared to benzyl ester [1]: ca. 120 fold; Ki [1, 16]: ~60 nM; Ki [1, 17]: 36 nM; Ki [1, 18]: 11 nM; Rhod. t1/2 [1]: 19.25 min; Ki [1, 19]: 63 nM; Ki [1, 20]: 57 nM; Rhod. ΔEreac [1]: -0.85 kcal/mol; Ki [1, 21]: 24 nM; Rhod. k3 [1]: 0.0025 s⁻¹; Rhod. k4 [1]: 0.0006 s⁻¹; fold improvement of cathepsin L inhibition, acid compared to benzyl ester ([5]; 3 compared to ester 1): 20 fold; Ki [5, 22]: ~400 nM; Cath. L t1/2 [5]: 16.5 min; Cath. L ΔEreac [5]: -1.2 kcal/mol"
CC(C)C[C@H](NC(=O)[C@H](Cc1ccccc1)NC1=C(C#N)C(=O)c2ccccc2C1=O)C(=O)O [Compound 4],,full reactivation,38,45,full reactivation,15,19,91,129,17,0.0051,0.0009,the enzymatic activity was restored; also recorded: only slow reactivation,,,"fold improvement of rhodesain inhibition, acid compared to benzyl ester [1]: ca. 1200 fold; Ki [1, 16]: ~0.4 nM; Ki [1, 17]: 0.2 nM; Ki [1, 18]: 0.1 nM; Rhod. t1/2 [1]: 19.25 min; Ki [1, 19]: 0.32 nM; Ki [1, 20]: 0.47 nM; Rhod. ΔEreac [1]: -0.89 kcal/mol; Ki [1, 21]: ~0.15 nM and 0.15 nM; Rhod. k3 [1]: 0.0027 s⁻¹; Rhod. k4 [1]: 0.0006 s⁻¹; Ki [5, 22]: ~100 nM; Cath. L t1/2 [5]: 12.8 min; Cath. L ΔEreac [5]: -1.1 kcal/mol"
COC(=O)[C@H](CC(C)C)NC(=O)[C@H](Cc1ccccc1)NC1=C(Cl)C(=O)c2ccccc2C1=O [Compound 5],,,,,,,,,,,,,,48,45,
COC(=O)[C@H](CC(C)C)NC(=O)[C@H](Cc1ccccc1)NC1=C(C#N)C(=O)c2ccccc2C1=O [Compound 6],1240,,,,,,,,,,,,,,40,half-life at 250 µM [8]: 10.2 min; turnover curve of absorbance at 400 nm vs. time with rhodesain [8]: hyperbolic turnover curves
CC(C)C[C@H](NC(=O)[C@H](Cc1ccccc1)NC1=C(Cl)C(=O)c2ccccc2C1=O)C(=O)OC(C)(C)C [Compound 7],,,,,,,,,,,,,,51,38,
CC(C)C[C@H](NC(=O)[C@H](Cc1ccccc1)NC1=C(C#N)C(=O)c2ccccc2C1=O)C(=O)OC(C)(C)C [Compound 8],,,,,,,,,,,,,,38,21,
"CN1CCN(C(=O)N[C@@H](Cc2ccccc2)C(=O)N[C@H](/C=C/S(=O)(=O)c2ccccc2)CCc2ccccc2)CC1 [K11777, reference compound]",,,,,no recovery was observed,,,,,,,,the enzyme activity could not be recovered,,,
